# B1: GLsc2-lyase: second lyase purified from Gracilariopsis lemaneiformis collected in Santa Cruz, Calif. (protein)
# chain: TALSDKQTAISIGPDNPDGINYQNYDYIPVAGFTPLSNTNWYAAGSSTPGGITDWTATMNVKFDRIDNPSYSNNHPVQIQVTSYNNNSFRIRFNPDGPIRDVSRGPILKQQLTWIRNQELAQGCNPNMSFSPEGFLSFETKDLNVIIYGNCKMRVTKKDGYLVMENDECNSQSDGNKCRGLMYVDRLYGNAIASVQTNFHKDTSRNEKFYGAGEVNCRYEEQGKAPTYVLERSGLAMTNYNYDNLNYNQPDVVPPGYPDHPNYYIPMYYAAPWLVVQGCAGTSKQYSYGWFMDNVSQSYMNTGDTAWNCGQENLAYMGAQYGPFDQHFVYGDGDGLEDVVKAFSFLQGKEFEDKKLNKRSVMPPKYVFGFFQGVFGALSLLKQNLPAGENNISVQEIVEGYQDNDYPFEGLAVDVDMQDDLRVFTTKPEYWSANMVGEGGDPNNRSVFEWAHDRGLVCQTNVTCFLRNDNSGKPYEVNQTLREKQLYTKNDSLNNTDFGTTSDGPGDAYIGHLDYGGGVECDAIFPDWGRPDVAQWWGENYKKLFSIGLDFVWQDMTVPAMMPHRLGDAVNKNSGSSAPGWPNENDPSNGRYNWKSYHPQVLVTDMRYGAEYGREPMVSQRNIHAYTLCESTRREGIVGNADSLTKFRRSYIISRGGYIGNQHFGGMWVGDNSATESYLQMMLANIINMNMSCLPLVGSDIGGFTQYNDAGDPTPEDLMVRFVQAGCLLPWFRNHYDRWIESKKHGKKYQELYMYPGQKDTLKKFVEFRYRWQEVLYTAMYQNATTGEPIIKAAPMYNNDVNVYKSQNDHFLLGGHDGYRILCAPVVRENATSREVYLPVYSKWFKFGPDFDTKPLENEIQGGQTLYNYAAPLNDSPIFVREGTILPTRYTLDGVNKSINTYTDNDPLVFELFPLENNQAHGLFYHDDGGVTTNAEDFGKYSVISVKAAQEGSQMSVKFDNEVYEHQWGASFYVRVRNMGAPSNINVSSQIGQQDMQQSSVSSRAQMFTSANDGEYWVDQSTNSLWLKLPGAVIQDAAITVR
# B2: MV-lyase: lyase isolated from the fungus Morchella vulgaris, ATCC (protein)
# chain: MAGLSDPLNFCKAEDYYAAAKGWSGPQKIIRYDQTPPQGTKDPKSWHAVNLPFDDGTMCVVQFVRPCVWRVRYDPSVKTSDEYGDENTRTIVQDYMTTLVGNLDIFRGLTWVSTLEDSGEYYTFKSEVTAVDETERTRNKVGDGLKIYLWKNPFRIQVVRLLTPLVDPFPIPNVANATARVADKVVWQTSPKTFRKNLHPQHKMLKDTVLDIIKPGHGEYVGWGEMGGIEFMKEPTFMNYFNFDNMQYQQVYAQGALDSREPLYHSDPFYLDVNSNPEHKNITATFIDNYSQIAIDFGKTNSGYIKLGTRYGGIDCYGISADTVPEIVRLYTGLVGRSKLKPRYILGAHQACYGYQQESDLHAVVQQYRDTKFPLDGLHVDVDFQDNFRTFTTNPITFPNPKEMFTNLRNNGIKCSTNITPVISIRDRPNGYSTLNEGYDKKYFIMDDRYTEGTSGDPQNVRYSFYGGGNPVEVNPNDVWARPDFGDNYDFPTNFNCKDYPYHGGVSYGYGNGTPGYYPDLNREEVRIWWGLQYEYLFNMGLEFVWQDMTTPAIHSSYGDMKGLPTRLLVTADSVTNASEKKLAIESWALYSYNLHKATFHGLGRLESRKNKRNFILGRGSYAGAYRFAGLWTGDNASTWEFWKISVSQVLSLGLNGVCIAGSDTGGFEPARTEIGEEKYCSPELLIRWYTGSFLLPWLRNHYVKKDRKWFQEPYAYPKHLETHPELADQAWLYKSVLEICRYWVELRYSLIQLLYDCMFQNVVDGMPLARSMLLTDTEDTTFFNESQKFLDNQYMAGDDILVAPILHSRNEVPGENRDVYLPLFHTWYPSNLRPWDDQGVALGNPVEGGSVINYTARIVAPEDYNLFHNVVPVYIREGAIIPQIQVRQWIGEGGPNPIKFNIYPGKDKEYVTYLDDGVSRDSAPDDLPQYREAYEQAKVEGKDVQKQLAVIQGNKTNDFSASGIDKEAKGYHRKVSIKQESKDKTRTVTIEPKHNGYDPSKEVGNYYTIILWYAPGFDGSIVDVSQATVNIEGGVECEIFKNTGLHTVVVNVKEVIGTTKSVKITCTTA
# Assays:
# α-1,4-glucan lyase [1] = experiment: Substrate specificity for oligosaccharides by Dionex HPLC; format: biochemical; conditions: 8 mg/ml substrate, 0.1M MES pH 6.3, 60 min at 30° C.
# Method: The specificity of α-1,4-glucan lyase for different oligosaccharides was tested. […] The oligosaccharides were dissolved in H2O at a concentration of 8 mg/ml. The enzyme assay contained 150 μl substrate G2/G3/G4/G5/G6/G7, 120 μl 0.1M MES pH 6.3 and 30 μl purified enzyme. The reaction mixture was incubated for 60 min at 30° C. Afterwards the reaction was stopped by boiling for 3 min and 900 μl absolute ethanol was added for precipitation. After centrifugation at 20.000×g for 5 min at 4° C. the supernatant was transferred to a new eppendorf tube and lyophilized.
# The freeze-dried samples were dissolved in 1000 μl H2O and were filtrated through a 0.22 μm Millipore filter before 25 μl of the sample was loaded on the Dionex HPLC.
# Analyses were performed on a Dionex 4500i chromatography system consisting of a GPM-2 pump and a PED detector which was used in pulse-amperometric detection mode. The anion exchange columns were a CarboPac PA-100 (4×250 mm) and a CarboPac PA-100 guard column (3×25 mm) from Dionex. The eluent were 200 mM sodium hydroxide (A), 500 mM sodium acetate (B) and 18 M ohm de-ionized water (C). The pump was programmed in 2 different ways, method no. 1 and method no.
# α-1,4-glucan lyase [2] = experiment: Reversible and irreversible inhibitors of the lyase; format: biochemical, Gracilariopsis lemaneiformis; conditions: for decrease of lyase activity (inhibition): 0.1 M inhibitor; for inhibition (second, untitled table): lyase not stated
# α-1,4-glucan lyase [3] = experiment: Degradation studies: AF released by the lyase from various substrates; format: biochemical, Gracilariopsis lemaneiformis; conditions: for AF released: substrate 10 mg/ml, 10 mM HOAc-NaOAc pH 3.8, 40 min at 45° C., 100 ul
# Method: Reaction conditions: The reaction mixture contained 10 mM of HOAc-NaOAc (pH 3.8). The substrate concentration was 10 mg/ml. The final volume was 100 ul after the addition of lyase and water. The reaction time was 40 min at 45° C.
# α-1,4-glucan lyase [4] = system: α-1,4-glucan lyase
# α-1,4-glucan lyase [5] = experiment: Effect of different reaction media upon production of AF by the lyase; format: biochemical, Gracilariopsis lemaneiformis; conditions: reaction medium
# Description: The production of AF using either pure water or 0.85% NaCl as reaction medium decreased the yield.
# lyase and pullulanase = experiment: Cooperation of pullulanase and lyase in the production of AF; format: biochemical; conditions: 2% substrate, 30° C., 1 day
# Method: The reaction mixture contained 0.3 ml 2% potato amylopectin (Sigma) in water or 0.3 ml 2% soluble starch (Merck), 2 μl lyase and 0.36 units pullulanase (BM) as indicated.
# The reaction was carried out at 30° C. for 1 day. At the end of the reaction, samples were taken for AF and Glc analysis.
# α-1,4-glucan lyase [6] = experiment: Effect of substrate on the stability of the lyase; format: biochemical; conditions: soluble and immobilized enzyme system
# Target sequence in this assay (as listed by the source): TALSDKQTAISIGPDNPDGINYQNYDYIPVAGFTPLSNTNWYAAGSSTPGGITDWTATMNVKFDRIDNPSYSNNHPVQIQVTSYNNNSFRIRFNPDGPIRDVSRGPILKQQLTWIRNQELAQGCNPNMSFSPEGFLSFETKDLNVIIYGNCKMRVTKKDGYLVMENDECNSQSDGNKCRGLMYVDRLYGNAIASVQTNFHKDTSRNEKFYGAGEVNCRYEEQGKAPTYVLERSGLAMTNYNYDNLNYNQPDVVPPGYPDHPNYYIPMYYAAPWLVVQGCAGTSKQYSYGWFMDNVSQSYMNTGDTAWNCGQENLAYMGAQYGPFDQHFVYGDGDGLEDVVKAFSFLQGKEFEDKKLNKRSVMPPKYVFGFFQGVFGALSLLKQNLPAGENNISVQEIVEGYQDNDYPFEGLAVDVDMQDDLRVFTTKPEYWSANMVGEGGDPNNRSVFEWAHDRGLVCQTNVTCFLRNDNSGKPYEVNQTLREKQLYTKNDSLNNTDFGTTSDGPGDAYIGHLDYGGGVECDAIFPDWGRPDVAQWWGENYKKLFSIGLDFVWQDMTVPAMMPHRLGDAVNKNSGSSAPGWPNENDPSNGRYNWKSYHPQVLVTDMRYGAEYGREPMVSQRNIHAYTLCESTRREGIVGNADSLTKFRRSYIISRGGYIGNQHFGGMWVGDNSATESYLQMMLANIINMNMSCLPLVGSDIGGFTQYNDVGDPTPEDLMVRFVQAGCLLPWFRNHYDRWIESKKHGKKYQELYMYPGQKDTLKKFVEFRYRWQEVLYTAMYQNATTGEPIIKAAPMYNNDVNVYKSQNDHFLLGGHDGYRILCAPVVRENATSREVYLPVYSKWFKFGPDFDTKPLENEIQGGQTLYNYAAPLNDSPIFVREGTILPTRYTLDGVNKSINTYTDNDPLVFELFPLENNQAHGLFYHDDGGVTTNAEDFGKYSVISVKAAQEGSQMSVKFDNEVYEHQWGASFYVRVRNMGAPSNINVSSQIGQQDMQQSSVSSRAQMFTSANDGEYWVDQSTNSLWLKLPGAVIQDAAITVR
# α-1,4-glucan lyase [7] = experiment: Km of the lyase; format: biochemical, Gracilariopsis lemaneiformis; conditions: substrate of the lyase
# Target sequence in this assay (as listed by the source): as above
# [8] = Isoelectric focusing of the α-1,4-glucan lyases; format: physicochemical; conditions: isoelectrofocusing, pH gradient 3-9
# Description: The relative migration rates were estimated from native PAGE on gels with 8-25% gradient; the pI values were estimated by isoelectrofocusing on gels with a pH gradient of 3-9.
# FIG. 2. Isoelectric focusing of the α-1,4-glucan lyases on a gel with a pH gradient of pH 3 to pH 9. The gel was stained with PhastGel Blue R.
# [9] = lyase added, pullulanase omitted
# [10] = lyase omitted, pullulanase added
molecule,measurement,setting,value
OC[C@H]1O[C@H](O[C@H]2[C@H](O)[C@@H](O)C(O)O[C@@H]2CO)[C@H](O)[C@@H](O)[C@@H]1O (mixture of isomers) [Maltose],"1,5-anhydrofructose formation from substrate","α-1,4-glucan lyase [1]","almost no 1,5-anhydrofructose was formed"
same,decrease of lyase activity (inhibition),"α-1,4-glucan lyase [2]; substrate amylopectin 1% (10 mg/ml)",73.4%
same,decrease of lyase activity (inhibition),"α-1,4-glucan lyase [2]; substrate amylopectin 2%",67.2%
same,decrease of lyase activity (inhibition),"α-1,4-glucan lyase [2]; substrate glycogen 1% (10 mg/ml)",48.8%
same,decrease of lyase activity (inhibition),"α-1,4-glucan lyase [2]; substrate glycogen 2%",49.7%
same,"inhibition (second, untitled table)","α-1,4-glucan lyase [2]; substrate amylopectin (1%)",80%
same,"inhibition (second, untitled table)","α-1,4-glucan lyase [2]; substrate glycogen (1%)",57%
same,activity of the lyase towards maltosaccharides,"α-1,4-glucan lyase [3]; in words",low activity
same,AF released,"α-1,4-glucan lyase [3]",657 nmol
O=C(O)CN(CCN(CC(=O)O)CC(=O)O)CC(=O)O [EDTA],effect on lyase activity,"α-1,4-glucan lyase [4]; up to 20 mM in the reaction mixture",little effect
[Cl-].[Na+] [NaCl],increase of AF yield,"α-1,4-glucan lyase [4]; 0.85% (0.145 M) in the reaction mixture",up to 1 fold
O [Water],AF yield,"α-1,4-glucan lyase [5]; reaction time 1 day",46 µmol
same,AF yield,"α-1,4-glucan lyase [5]; reaction time 3 days",128 µmol
same,AF yield,"α-1,4-glucan lyase [5]; reaction time 8 days",217 µmol
Amylopectin,AF Yield (%),lyase and pullulanase; [9],48.0%
same,Glc Yield (%),lyase and pullulanase; [9],0%
same,AF Yield (%),lyase and pullulanase; lyase and pullulanase added,71.3%
same,Glc Yield (%),lyase and pullulanase; lyase and pullulanase added,3.7%
same,AF Yield (%),lyase and pullulanase; [10],0%
same,Glc Yield (%),lyase and pullulanase; [10],0.33%
same,AF released,"α-1,4-glucan lyase [3]",732 nmol
same,effect on stability of the lyase,"α-1,4-glucan lyase [6]",stabilizing effect
same,Km,"α-1,4-glucan lyase [7]",3.76 mg/mL
Glycogen,AF released,"α-1,4-glucan lyase [3]",592 nmol
same,Km,"α-1,4-glucan lyase [7]",3.37 mg/mL
B1,pI,[8],4.1
B2,pI,[8],4.4

# From patent publication US6541237B1, “A-1,4-glucan lyase and its use in the production of 1.5-androfructose” (Danisco A/S, priority 1994, dated 2003)
